The values that follow come from PubChem BioAssay (NCI).

Test systems include EKVX NSCLC; ACHN renal; SNB-19 CNS; SNB-75 CNS; COLO 205 colon; MOLT-4 leukemia; OVCAR-5 ovarian; HT29 colon; RXF 393 renal.
Holding throughout (experiment): inhibition of tumour cell growth, NCI panel, 48 h

Several values for one entry are separate records, joined by “and”; a condition that tells them apart may be missing. Identical values can stand only once.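 96-well plates; 48 h exposure; 5 concentrations. Endpoints by linear interpolation between flanking doses. Not reached: highest tested concentration assigned. GI50 = concentration required for 50% inhibition of growth. At the TGI there is no net growth.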

`Cc1cc2c(cc1Cl)SC1=NN(C)S(=O)N1S2(=O)=O` (stereo unspecified): the GI50 in the assay on EKVX NSCLC was over 100 µM; in the assay with ACHN renal it was over 100000 nM; in the assay with SNB-19 CNS, over 100 µM; in the assay with SNB-75 CNS it was 58700 nM; in the assay on COLO 205 colon it was over 100 µM; with MOLT-4 leukemia it was over 100 µM. The GI50 was over 100000 nM with OVCAR-5 ovarian and over 100 µM in the assay on HT29 colon. Also, the TGI with EKVX NSCLC, in the assay on ACHN renal, in the assay on SNB-19 CNS, in the assay with SNB-75 CNS, in the assay with COLO 205 colon and in the assay with MOLT-4 leukemia was over 100 µM in each case. For the same compound, the TGI in the assay with OVCAR-5 ovarian and with HT29 colon was over 100 µM each time.

As for `CCOC(=O)/C(=C\c1ccccc1)C(=O)O`, the TGI with EKVX NSCLC, in the assay on ACHN renal, in the assay on SNB-19 CNS, in the assay with COLO 205 colon, in the assay on MOLT-4 leukemia and with OVCAR-5 ovarian was over 100 µM in each case. Moreover, in the assay on HT29 colon, the TGI was over 100 µM.

Turning to `O=C(O)COCC(=O)N(CCOCCN(Cc1ccccc1)C(=O)COCC(=O)O)Cc1ccccc1`, the TGI with EKVX NSCLC, in the assay on ACHN renal, in the assay on RXF 393 renal, in the assay on SNB-19 CNS, in the assay with COLO 205 colon and with MOLT-4 leukemia was over 100 µM in each case. Besides, the TGI in the assay with OVCAR-5 ovarian and with HT29 colon was over 100 µM in each case.

Take `O=C(CCc1cc(-c2ccccc2)nc(=S)[nH]1)N(Cc1ccccc1)Cc1ccccc1`: the TGI in the assay on EKVX NSCLC, in the assay on ACHN renal, with SNB-19 CNS, with COLO 205 colon, in the assay with MOLT-4 leukemia and in the assay on OVCAR-5 ovarian was over 100 µM throughout. This compound had a TGI with HT29 colon of over 100 µM.

With `N#CSC1CCCCNC1=O` (stereo unspecified), the TGI in the assay on EKVX NSCLC stood at 37.5 µM; in the assay with ACHN renal, 29.9 µM; in the assay with RXF 393 renal, 34 µM; in the assay on SNB-19 CNS, 30.2 µM; in the assay on COLO 205 colon it was 30.2 µM; in the assay on MOLT-4 leukemia, 15 µM. Further, the TGI in the assay with OVCAR-5 ovarian stood at 13.2 µM; in the assay with HT29 colon, 26.5 µM.

As to `COc1cc(C(=O)CBr)c(OC)cc1C`, the TGI with EKVX NSCLC, in the assay with ACHN renal, in the assay on RXF 393 renal, in the assay with SNB-19 CNS, in the assay with COLO 205 colon and in the assay with MOLT-4 leukemia was over 100 µM each time. The TGI in the assay on OVCAR-5 ovarian and with HT29 colon was over 100 µM each time.

Consider `NC12CC3CC(C1)CC(C(=O)O)(C3)C2`, for which the TGI with EKVX NSCLC, with ACHN renal, with SNB-19 CNS, with SNB-75 CNS, in the assay with MOLT-4 leukemia and in the assay with OVCAR-5 ovarian was over 100 µM in each case. This compound returned a TGI in the assay on HT29 colon of over 100 µM.

For `COc1ccc(-c2nc(-c3nc4ccc(Cl)cc4[nH]3)c3ccccn23)cc1`, the GI50 in the assay with ACHN renal was 1860 nM; in the assay with RXF 393 renal, 1940 nM; with SNB-19 CNS it was 3.6 µM; in the assay with SNB-75 CNS, 1870 nM; in the assay on COLO 205 colon, 3.61 µM; in the assay with MOLT-4 leukemia, over 100 µM. The GI50 with OVCAR-5 ovarian was 7320 nM; with HT29 colon it was 3.66 µM. The TGI is 3.75 µM in the assay with ACHN renal; 3.85 µM in the assay on RXF 393 renal; 20.7 µM in the assay on SNB-19 CNS; 3.94 µM in the assay with SNB-75 CNS; 13.3 µM in the assay on COLO 205 colon; over 100 µM in the assay with MOLT-4 leukemia. The TGI in the assay on OVCAR-5 ovarian is 29.3 µM; with HT29 colon it was 14.2 µM.

Regarding `CC(C)(CO)N1CCN(C(=S)Nc2ccccc2)CC1`, the TGI in the assay with EKVX NSCLC, with ACHN renal, with RXF 393 renal, in the assay with SNB-19 CNS, in the assay with SNB-75 CNS and in the assay with COLO 205 colon was over 100 µM in each case. Besides, the TGI in the assay with OVCAR-5 ovarian and with HT29 colon was over 100 µM throughout.

For the compound `Cc1cc(-c2cnn3c(NCC4CC(C)(O)C4)cc(Oc4cccnc4)nc23)ccc1C(=O)NC1CC1` (stereo unspecified), the GI50 in the assay with EKVX NSCLC is 3.76 µM; with ACHN renal, 1290 nM; with RXF 393 renal, 1550 nM; with SNB-19 CNS, over 60.7 µM; in the assay on SNB-75 CNS, 2110 nM; in the assay on COLO 205 colon it was 1.06 µM. Besides, the GI50 in the assay with OVCAR-5 ovarian is over 100000 nM. Also, the TGI in the assay with EKVX NSCLC, in the assay on ACHN renal, in the assay with RXF 393 renal, in the assay on SNB-19 CNS, in the assay with SNB-75 CNS and with COLO 205 colon was over 100 µM in each case. In addition, the TGI in the assay with OVCAR-5 ovarian was over 100 µM.

On to `COC1(OC)CC2OC1C1N=NN(C(=O)OC(C)(C)C)C21` (stereo unspecified), for which the TGI with ACHN renal, in the assay on RXF 393 renal, in the assay with SNB-75 CNS, with COLO 205 colon, in the assay on MOLT-4 leukemia and in the assay with OVCAR-5 ovarian was over 100 µM each time. The compound further showed a TGI in the assay with HT29 colon of over 100 µM.

`N#CC(C#N)=C1Nc2ccccc2S1`: the GI50 in the assay on EKVX NSCLC is 34.7 µM; with RXF 393 renal it was 36000 nM; with SNB-19 CNS, 38.2 µM; in the assay on COLO 205 colon, 29.5 µM; in the assay with MOLT-4 leukemia, 33.3 µM. Besides, the TGI in the assay on EKVX NSCLC, in the assay on RXF 393 renal, in the assay with SNB-19 CNS, in the assay with COLO 205 colon and in the assay on MOLT-4 leukemia was over 100 µM throughout.

As for `CCOCC(=O)N[C@H]1CCc2cc(OC)c(OC)c(OC)c2-c2ccc(OC)c(=O)cc21`, the TGI in the assay with EKVX NSCLC was over 100 µM; in the assay on ACHN renal it was over 100 µM; in the assay on RXF 393 renal it was over 100 µM; in the assay on SNB-19 CNS, over 100 µM; in the assay on COLO 205 colon it was 0.0205 µM; in the assay with MOLT-4 leukemia, over 52.7 µM. Besides, the TGI was over 100 µM with OVCAR-5 ovarian and over 8.15 µM in the assay on HT29 colon.

Turning to `CNC(=O)C1CCc2nnc(-c3ccccc3)n21` (stereo unspecified), the TGI in the assay with EKVX NSCLC, with ACHN renal, in the assay with RXF 393 renal, in the assay with SNB-19 CNS, in the assay with SNB-75 CNS and in the assay with COLO 205 colon was over 100 µM throughout. The compound also came in with a TGI with MOLT-4 leukemia of over 100 µM.

Take `COc1cc[nH]c1/C=C1\C(=O)Nc2ccc(F)c(C#CC3(O)CCNCC3)c21`: the GI50 in the assay with ACHN renal is 26.2 nM; with RXF 393 renal, 20.4 nM; with SNB-19 CNS, 0.564 µM; in the assay with SNB-75 CNS it was 14 nM; in the assay with COLO 205 colon, 0.0303 µM; with MOLT-4 leukemia, 0.063 µM. The GI50 is 275 nM in the assay on OVCAR-5 ovarian and 0.0916 µM with HT29 colon. Besides, the TGI came to 2.56 µM in the assay on ACHN renal; 0.201 µM with RXF 393 renal; 2.15 µM in the assay with SNB-19 CNS; 0.469 µM with SNB-75 CNS; 0.372 µM in the assay with COLO 205 colon; 0.965 µM in the assay on MOLT-4 leukemia. Moreover, the figures for the TGI with OVCAR-5 ovarian and in the assay on HT29 colon were 2.37 µM and 1.1 µM, respectively.

In the case of `O=C1c2ccccc2C(=O)N1CCc1ncc[nH]1`, the TGI with EKVX NSCLC, with ACHN renal, in the assay with SNB-19 CNS, with COLO 205 colon, in the assay with MOLT-4 leukemia and in the assay on OVCAR-5 ovarian was over 100 µM throughout. For the same compound, the TGI in the assay with HT29 colon was over 100 µM.

For `CC(=O)O[C@H]1C(=O)[C@@]2(C)C(C(OC(=O)c3ccccc3)[C@]3(O)CC(OC(=O)[C@H](OC(=O)CCC(=O)O)C(NC(=O)c4ccccc4)c4ccccc4)C(C)=C1C3(C)C)C1(OC(C)=O)COC1C[C@@H]2O` (stereo partly specified), the GI50 in the assay on EKVX NSCLC is 0.121 µM and 0.875 µM; in the assay on ACHN renal, 190 nM and 821 nM; with RXF 393 renal it was < 24.9 nM and 52.8 nM; in the assay with SNB-75 CNS, 22 nM and 76 nM; in the assay with OVCAR-5 ovarian, < 14.6 nM and 32.4 nM. Moreover, the TGI in the assay with EKVX NSCLC is over 100 µM; with ACHN renal it was over 100 µM; in the assay on RXF 393 renal it was 2.79 µM; in the assay with SNB-19 CNS, over 100 µM; in the assay with COLO 205 colon it was < 0.0142 µM and 0.04 µM; in the assay with MOLT-4 leukemia, 1.05 µM. In the assay on OVCAR-5 ovarian, this compound came in with a TGI of over 36.1 µM.

For the compound `Cc1ccc(NC(=O)CC(=O)n2nc(C)c(N=Nc3ccccc3C(=O)O)c2C)cc1`, the TGI in the assay with EKVX NSCLC, with SNB-19 CNS, with SNB-75 CNS, in the assay on COLO 205 colon, in the assay with MOLT-4 leukemia and in the assay with OVCAR-5 ovarian was over 100 µM throughout. Besides, the TGI in the assay on HT29 colon is over 100 µM.

Turning to `Nc1c(-c2ccc(Cl)cc2)[n+]([O-])c2ccccc2[n+]1[O-]`, the TGI in the assay with EKVX NSCLC, in the assay on ACHN renal, with SNB-19 CNS, with SNB-75 CNS, in the assay with COLO 205 colon and in the assay with MOLT-4 leukemia was over 100 µM each time. The TGI in the assay with OVCAR-5 ovarian and in the assay with HT29 colon was over 100 µM each time.

As to `O=C(N/C(=C\c1cccc([N+](=O)[O-])c1)c1nc2ccc([N+](=O)[O-])cc2[nH]1)c1ccccc1`, the TGI in the assay with EKVX NSCLC was over 100 µM; in the assay on ACHN renal, over 100 µM; in the assay with RXF 393 renal, over 100 µM; with SNB-19 CNS it was over 100 µM; in the assay on COLO 205 colon, over 100 µM; with MOLT-4 leukemia, 51.4 µM. Besides, the TGI with OVCAR-5 ovarian and in the assay on HT29 colon was over 100 µM in each case.

For `N#C/C(=C\c1ccc2ccccc2c1)c1ccccc1`, the TGI was 98.3 µM with ACHN renal; 65 µM in the assay on RXF 393 renal; 48.6 µM with SNB-75 CNS; 35.9 µM in the assay with COLO 205 colon; 94.5 µM in the assay on MOLT-4 leukemia; over 100 µM with OVCAR-5 ovarian. Moreover, in the assay with HT29 colon, the TGI is 74.6 µM.
